Legend:
[1] = Maximum electroshock test
Description: (§2) The anticonvulsant action of the proposed preparation was tested on mice weighing 19 to 25 g and rats weighing 120 to 150 g by conducting maximum electroshock, corazol, strychnine, camphor, nicotine and arecoline tests.

[2] = Duration of Nembutal-induced sleep; format: in vivo; conditions: for Average Duration of Nembutal-Induced Sleep: P = 0.05, Nembutal 40 mg/kg, proposed preparation 100 mg/kg, zarontin 150 mg/kg, milontin 100 mg/kg
Excerpt: (§1) Nembutal was used as a trunk narcotic, and urethane as a cortical narcotic.

[3] = Duration of urethane-induced sleep; format: in vivo; conditions: milontin 100 mg/kg; for Average Duration of Urethane-Induced Sleep: P = 0.05, urethane 1,000 mg/kg, proposed preparation 100 mg/kg, zarontin 150 mg/kg
Excerpt: as §1

[4] = Acute toxicity, single intraperitoneal administration, 48 hours (Litchfield and Wilcockson); format: in vivo, white mice; conditions: intraperitoneal, white mice, P=0.05; for LD50: 2880 min; for LD50 at 48 h: mouse, in vivo, ip
Description: The acute toxicity of the proposed preparation was tested on white mice weighing 19 to 20 g, by single intraperitoneal administrations of 1.5- and 10-percent colloidal solutions of the anticonvulsant in a 0.5-percent solution of carboxymethyl cellulose. The animals were observed during 48 hours. In order to establish the median lethal dose (LD50), the experimental data was statistically processed using the Litchfield and Wilcockson techniques. Milontin and zarontin were analyzed in the same way.

Camphor convulsions test = conditions: for ED50: Mus musculus, read-out: ED50 (camphor)
Description: as §2

[5] = Neurotoxicity: rightening, gait, stance, muscle tone and equilibrium tests; format: in vivo; conditions: P = 0.05; for TD50: in vivo, read-out: TD50 (mean neurotoxic dose)
Description: The neurotoxicity levels were determined by conducting rightening, gait, stance, muscle tone and equilibrium tests.

animal or person = experiment: animal or person
Description: The general effect of the proposed preparation was tested on white mice, rats and rabbits.

[6] = Clinical comparison in petit mal epilepsy; format: in vivo, human (patients)

Description for Corazol convulsion test: as §2

Question: For `CN1C(=O)CC(c2ccccc2)C1=O` (stereo not drawn) [Milontin, N-methyl-α-phenylsuccinimide], which ED50 ([1]; Mus musculus, read-out: ED50 (Electroshock)) is on record?
Answer: Its ED50 is 64 mg/kg.

Question: And the “protection index I=TD50/ED50, Electroshock” value ([1]; electroshock)?
Answer: Its value is 5.3.

Question: And the “protection index PI (mean lethal dose / mean effective dose), Electroshock” value ([1]; electroshock)?
Answer: Its value is 14.85.

Question: And the “anticonvulsant activity in maximum electroshock test” value ([1]; in words)?
Answer: The value was “anticonvulsant activity was only exhibited by the proposed preparation and milontin”.

Question: And the ED50 (Corazol convulsion test; Mus musculus, read-out: ED50 (corazol))?
Answer: The ED50 was 87 mg/kg.

Question: And the “protection index I=TD50/ED50, Corazol” value (Corazol convulsion test; corazol)?
Answer: The value was 3.91.

Question: What about the “protection index PI (mean lethal dose / mean effective dose), Corazol” value (Corazol convulsion test; corazol) of the same molecule?
Answer: Its value is 10.9.

Question: What about the “Average Duration of Nembutal-Induced Sleep” value [2] of the same molecule?
Answer: Its value is 139.2 ± 33.2 min.

Question: What about the “prolongation of the hypnotic action of Nembutal” value ([2]; in words) of the same molecule?
Answer: The value was “statistically significant prolongation”.

Question: And the “Average Duration of Urethane-Induced Sleep” value [3]?
Answer: Its value is 16.5 ± 4.6 min.

Question: What about the “prolongation of duration of urethane-induced sleep” value [3] of the same molecule?
Answer: The value was “more than 3 times”.

Question: What about the “antistrychnine effect, ranking of the three drugs” value (in words) of the same molecule?
Answer: The value was “at its lowest”.

Question: What about the “ED50 (strychnine)” value (strychnine) of the same molecule?
Answer: The value was 230 mg/kg.

Question: What about the “protection index I=TD50/ED50, Strychnine” value (strychnine) of the same molecule?
Answer: The value was 1.47.

Question: And the “protection index PI (mean lethal dose / mean effective dose), Strychnine” value (strychnine)?
Answer: The value was 4.14.

Question: And the LD50 [4]?
Answer: The LD50 was 950 (792 to 1,140) mg/kg.

Question: And the LD50 at 48 h [4]?
Answer: The LD50 at 48 h was 950 mg/kg.

Question: What about the ED50 (Camphor convulsions test) of the same molecule?
Answer: Its ED50 is 99 mg/kg.

Question: And the “protection index I=TD50/ED50, Camphor” value (Camphor convulsions test; camphor)?
Answer: The value was 3.44.

Question: What about the “protection index PI (mean lethal dose / mean effective dose), Camphor” value (Camphor convulsions test; camphor) of the same molecule?
Answer: Its value is 9.6.

Question: And the “TD50 (mean neurotoxic dose)” value [5]?
Answer: The value was 340(278 to 416) mg/kg.

Question: What about the TD50 [5] of the same molecule?
Answer: The TD50 was 340 mg/kg.

Question: Which “Average Duration of Nembutal-Induced Sleep” value [2] does the source give for `CCCC(C)C1(CC)C(=O)NC(=O)NC1=O` (stereo not shown) [Nembutal] here?
Answer: Its value is 40.8 ± 23.04 min.

Question: For `CCOC(N)=O` [Urethane], which “Average Duration of Urethane-Induced Sleep” value [3] is on record?
Answer: The value was 3.3 ± 1.4 min.

Question: For `CCC1(C)CC(=O)NC1=O` (stereo not drawn) [Zarontin, α-methyl, ethylsuccinimide], which dose inducing sleep (animal or person; intraperitoneal) is on record?
Answer: The dose inducing sleep was at least 900 mg/kg.

Question: What about the “dose causing tremors of the hind extremities” value (animal or person; mouse, in vivo, ip) of the same molecule?
Answer: The value was 700 mg/kg.

Question: And the “Average Duration of Nembutal-Induced Sleep” value [2]?
Answer: The value was 76.9 ± 28.9 min.

Question: And the “Average Duration of Urethane-Induced Sleep” value [3]?
Answer: Its value is 4.7 ± 2.1 min.

Question: What about the “ED50 (strychnine)” value (strychnine) of the same molecule?
Answer: Its value is 152 mg/kg.

Question: What about the LD50 [4] of the same molecule?
Answer: The LD50 was 1,325 (1,200 to 1,462) mg/kg.

Question: And the LD50 at 48 h [4]?
Answer: Its LD50 at 48 h is 1320 mg/kg.

Question: And the ED50 (Camphor convulsions test)?
Answer: Its ED50 is 131 mg/kg.

Question: What about the “TD50 (mean neurotoxic dose)” value [5] of the same molecule?
Answer: The value was 590(513 to 678) mg/kg.

Question: What about the TD50 [5] of the same molecule?
Answer: Its TD50 is 590 mg/kg.

Question: For `CC1(c2ccccc2)CC(=O)N(CN2CCOCC2)C1=O` (stereo not shown) [morpholep], which patients with improvement [6] is on record?
Answer: Its patients with improvement is 12 out of 14.

Question: For `CCC1(C)CC(=O)NC1=O` (stereo not shown) [pyknolepsin], which patients with improvement [6] is on record?
Answer: The patients with improvement was 12 out of 14.

Question: Which patients with improvement [6] does the source give for `CCC1(C)CC(=O)NC1=O` (stereo not shown) [suxilep] here?
Answer: The patients with improvement was 10 out of 12.

— patent publication US4188398A, “Method for treating epilepsy” (priority 1978, dated 1980)
